Laboratory results from PMC8222254, “Self-assembly of an anion receptor with metal-dependent kinase inhibition and potent in vitro anti-cancer properties” (Nature Communications, 2021).
Values joined by “and” are separate entries in the source; they are usually repeats but may differ in a detail not shown here. Identical values can stand only once. Like-named read-outs stand apart in the source and are kept apart here.

Legend:
Assay in all cases: Chemosensitivity, 96 h continuous exposure, MTT assay;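 as to SI (NPI): adult human brain neural progenitor non-cancer cells from an epilepsy surgery patient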;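 as to Selectivity Index using the NPI non-cancer cell line: adult human brain neural progenitor non-cancer cells from an epilepsy surgery patient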
Assay type in all cases: cell-based, human
[1] = test system: ARPE-19 non-cancer cells
Summary of the method: (§1)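 Growth inhibition is measured by MTT after cells are dosed for 96 h without washout. The 50% growth-reduction concentration is then interpolated from the curves.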

[2] = test system: BxPC3;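 as to SI (NPI): adult human brain neural progenitor non-cancer cells from an epilepsy surgery patient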;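 as to Selectivity Index using the NPI non-cancer cell line: adult human brain neural progenitor non-cancer cells from an epilepsy surgery patient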
Summary of the method: as §1

[3] = test system: HCT116 p53+/+
Summary of the method: as §1

[4] = test system: MiaPaCa2
Summary of the method: as §1

[5] = test system: DLD-1
Summary of the method: as §1

[6] = test system: A549
Summary of the method: as §1

[7] = test system: MCF10A non-cancer cells
Summary of the method: as §1

## CC(=O)[O-].CC(=O)[O-].CC(=O)[O-].CC(=O)[O-].CC(=O)[O-].CC(=O)[O-].[Zn+2].[Zn+2].[Zn+2].c1ccc(-c2csc(NCCN(CCNc3nc(-c4ccccn4)cs3)CCNc3nc(-c4ccccn4)cs3)n2)nc1.c1ccc(-c2csc(NCCN(CCNc3nc(-c4ccccn4)cs3)CCNc3nc(-c4ccccn4)cs3)n2)nc1 [[L2Zn3]6+]
[1]; ARPE-19, 96 h, MTT, individual run, read-out: IC50 values for each replicate
  IC50: 154 µM and 160 µM and 144 µM and 171 µM
[1]; ARPE-19, 96 h, MTT, mean of at least 3 independent experiments, read-out: Mean IC50
  IC50: 157 µM
[1]; ARPE-19, mean of replicates, read-out: Mean IC50
  IC50: 157 µM
[1]; ARPE-19 non-cancer, read-out: Mean IC50 values
  IC50: 157 µM
[1]; ratio of IC50, ARPE-19
  Relative potency (+ anion to no anion), Ratio + anion:no anion: 1
[2]; BXPC3, mean of replicates, read-out: Mean IC50
  IC50: 320 nM
[2]; BXPC3, read-out: Mean IC50 values
  IC50: 320 nM
[2]; BxPC3, 96 h, MTT, individual run, read-out: IC50 values for each replicate
  IC50: 228 nM and 147 nM and 595 nM and 533 nM and 171 nM and 249 nM
[2]; BxPC3, 96 h, MTT, mean of at least 3 independent experiments, read-out: Mean IC50
  IC50: 320 nM
[2]; IC50 ARPE-19 / IC50 BXPC3
  Selectivity index (ARPE19): 491.41
[2]; IC50 MCF10A / IC50 BXPC3
  Selectivity index (MCF10A): 505.12
[2]; IC50 NP1 / IC50 BXPC3
  Selectivity Index using the NPI non-cancer cell line: 24.31
[2]; mean IC50 ARPE-19 / mean IC50 BxPC3
  SI (ARPE19): 491.41
[2]; mean IC50 MCF10A / mean IC50 BxPC3
  SI (MCF10A): 505.12
[2]; mean IC50 NP1 / mean IC50 BxPC3
  SI (NPI): 24.31
[2]; ratio of IC50, BXPC3
  Relative potency (+ anion to no anion), Ratio + anion:no anion: 1
[2]; ratio of SI (ARPE-19), BXPC3
  Selectivity indices relative to ARPE-19, Ratio + anion:no anion: 1
[2]; ratio of SI (MCF 10A), BXPC3
  Selectivity indices relative to MCF10A, Ratio + anion:no anion: 1
[3]; HCT116 p53+/+, 96 h, MTT, mean of at least 3 independent experiments, read-out: Mean IC50
  IC50: 466 nM
[3]; HCT116 p53+/+, mean of replicates, read-out: Mean IC50
  IC50: 466 nM
[3]; HCT116 p53+/+, read-out: Mean IC50 values
  IC50: 466 nM
[3]; IC50 ARPE-19 / IC50 HCT116 p53+/+
  Selectivity index (ARPE19): 337.45 and 337.23
[3]; IC50 MCF10A / IC50 HCT116 p53+/+
  Selectivity index (MCF10A): 346.87
[3]; IC50 NP1 / IC50 HCT116 p53+/+
  Selectivity Index using the NPI non-cancer cell line: 16.70
[3]; mean IC50 ARPE-19 / mean IC50 HCT116 p53+/+
  SI (ARPE19): 337.45
[3]; mean IC50 MCF10A / mean IC50 HCT116 p53+/+
  SI (MCF10A): 346.87
[3]; mean IC50 NP1 / mean IC50 HCT116 p53+/+
  SI (NPI): 16.70
[3]; ratio of IC50, HCT116 p53+/+
  Relative potency (+ anion to no anion), Ratio + anion:no anion: 1
[3]; ratio of SI (ARPE-19), HCT116 p53+/+
  Selectivity indices relative to ARPE-19, Ratio + anion:no anion: 1
[3]; ratio of SI (MCF 10A), HCT116 p53+/+
  Selectivity indices relative to MCF10A, Ratio + anion:no anion: 1
[4]; IC50 ARPE-19 / IC50 MiaPaCa2
  Selectivity index (ARPE19): 2.66
[4]; IC50 MCF10A / IC50 MiaPaCa2
  Selectivity index (MCF10A): 2.74
[4]; IC50 NP1 / IC50 MiaPaCa2
  Selectivity Index using the NPI non-cancer cell line: 0.13
[4]; MiaPaCa2, 96 h, MTT, individual run, read-out: IC50 values for each replicate
  IC50: 11.9 µM and 15 µM and 16.3 µM
[4]; MiaPaCa2, mean of replicates, read-out: Mean IC50
  IC50: 59.1 µM
[4]; MiaPaCa2, read-out: Mean IC50 values
  IC50: 59.1 µM
[4]; MiaPaCa2, single replicate, read-out: IC50 values for each replicate
  IC50: 52.7 µM and 64.8 µM and 64.5 µM and 54.3 µM
[4]; mean IC50 ARPE-19 / mean IC50 MiaPaCa2
  SI (ARPE19): 10.90
[4]; mean IC50 MCF10A / mean IC50 MiaPaCa2
  SI (MCF10A): 11.21
[4]; mean IC50 NP1 / mean IC50 MiaPaCa2
  SI (NPI): 0.54
[4]; ratio of IC50, MiaPaCa2
  Relative potency (+ anion to no anion), Ratio + anion:no anion: 1
[4]; ratio of SI (ARPE-19), MiaPaCa2
  Selectivity indices relative to ARPE-19, Ratio + anion:no anion: 1
[4]; ratio of SI (MCF 10A), MiaPaCa2
  Selectivity indices relative to MCF10A, Ratio + anion:no anion: 1
[5]; DLD-1, 96 h, MTT, individual run, read-out: IC50 values for each replicate
  IC50: 216 nM and 89 nM and 84 nM and 141 nM and 222 nM and 211 nM and 225 nM
[5]; DLD-1, 96 h, MTT, mean of at least 3 independent experiments, read-out: Mean IC50
  IC50: 170 nM
[5]; DLD-1, mean of replicates, read-out: Mean IC50
  IC50: 170 nM
[5]; DLD-1, read-out: Mean IC50 values
  IC50: 170 nM
[5]; IC50 ARPE-19 / IC50 DLD-1
  Selectivity index (ARPE19): 925.00
[5]; IC50 MCF10A / IC50 DLD-1
  Selectivity index (MCF10A): 950.82
[5]; IC50 NP1 / IC50 DLD-1
  Selectivity Index using the NPI non-cancer cell line: 45.76
[5]; mean IC50 ARPE-19 / mean IC50 DLD-1
  SI (ARPE19): 925.00
[5]; mean IC50 MCF10A / mean IC50 DLD-1
  SI (MCF10A): 950.82
[5]; mean IC50 NP1 / mean IC50 DLD-1
  SI (NPI): 45.76
[5]; ratio of IC50, DLD-1
  Relative potency (+ anion to no anion), Ratio + anion:no anion: 1
[5]; ratio of SI (ARPE-19), DLD-1
  Selectivity indices relative to ARPE-19, Ratio + anion:no anion: 1
[5]; ratio of SI (MCF 10A), DLD-1
  Selectivity indices relative to MCF10A, Ratio + anion:no anion: 1
[6]; A549, 96 h, MTT, individual run, read-out: IC50 values for each replicate
  IC50: 161 nM and 257 nM and 503 nM and 692 nM
[6]; A549, 96 h, MTT, mean of at least 3 independent experiments, read-out: Mean IC50
  IC50: 403 nM
[6]; A549, mean of replicates, read-out: Mean IC50
  IC50: 403 nM
[6]; A549, read-out: Mean IC50 values
  IC50: 403 nM
[6]; IC50 ARPE-19 / IC50 A549
  Selectivity index (ARPE19): 390.20
[6]; IC50 MCF10A / IC50 A549
  Selectivity index (MCF10A): 401.09
[6]; IC50 NP1 / IC50 A549
  Selectivity Index using the NPI non-cancer cell line: 19.31
[6]; mean IC50 ARPE-19 / mean IC50 A549
  SI (ARPE19): 390.20
[6]; mean IC50 MCF10A / mean IC50 A549
  SI (MCF10A): 401.09
[6]; mean IC50 NP1 / mean IC50 A549
  SI (NPI): 19.31
[6]; ratio of IC50, A549
  Relative potency (+ anion to no anion), Ratio + anion:no anion: 1
[6]; ratio of SI (ARPE-19), A549
  Selectivity indices relative to ARPE-19, Ratio + anion:no anion: 1
[6]; ratio of SI (MCF 10A), A549
  Selectivity indices relative to MCF10A, Ratio + anion:no anion: 1
[7]; MCF10A non-cancer, read-out: Mean IC50 values
  IC50: 162 µM
[7]; MCF10A, 96 h, MTT, individual run, read-out: IC50 values for each replicate
  IC50: 169 µM and 176 µM and 140 µM
[7]; MCF10A, 96 h, MTT, mean of at least 3 independent experiments, read-out: Mean IC50
  IC50: 162 µM
[7]; MCF10A, mean of replicates, read-out: Mean IC50
  IC50: 162 µM
[7]; ratio of IC50, MCF10A
  Relative potency (+ anion to no anion), Ratio + anion:no anion: 1
